Tested on: retinal ganglion cells in co-cultures with glial cells
Test: TUNEL apoptosis of retinal ganglion cells in co-cultures with glial cells under stress conditions
Assay type: cell-based, rat
Conditions: for decrease of rate of positive TUNEL: antibody 10 ug/ml, 1400W 2.5 uM
Description: Retinal ganglion cell cultures. Primary cultures of retinal ganglion cells were derived from newborn rat retinas using a protocol similar to that recently described^70. All experiments were performed in accordance with the ARVO Statement for the Use of Animals in Ophthalmic and Vision Research and were approved by The Animal Studies Committee of Washington University. Five to seven days old Sprague-Dawley rats were anesthetized and their eyes were enucleated. The eyes were rinsed with CO2-independent culture medium (Gibco, Grand Island, N.Y.) and retinas were mechanically dissected under a microscope. To prepare retinal cell suspensions, tissues were dissociated in Eagles's minimum essential medium containing 20 U/ml papain, 1 mM L-cystein 0.5 mM EDTA and DNase (0.005%) (Worthington, Lakewood, N.J.) at 37° C. for 40 minutes. Then, retinas were rinsed in an inhibitor solution containing Eagle's minimum essential medium, ovomucoid (0.2%) (US Biological, Swampscott, Mass.), DNAase (0.04%) and bovine serum albumin (0.1%) (Sigma, St. Louis, Mo.). At the end of treatment period, tissues were triturated through a 1 ml plastic pipette to yield a suspension of single cells. The retinal cells were spun at 400 g for 10 minutes, resuspended in Eagle's minimum essential medium containing bovine serum albumin (0.05%) and incubated in a tissue culture incubator until their immediate use for subsequent separation by immunomagnetic selection^71,72.
Immunomagnetic selection of the retinal ganglion cells was performed using magnetic, 2.8±0.2 um diameter, polystyrene beads coated with biotinylated rat monoclonal antibody against mouse IgG1 (Dynal, Oslo, Norway) in a two step process. In the first step, after washing with phosphate buffered saline solution containing 0.1% bovine serum albumin, 1×10^7 beads/ml were added to monoclonal antibody against macrophage surface antigens (100 ug/ml) (Sigma). After incubation at room temperature on a rotator for 30 minutes, beads were washed using a specially designed magnet (Dynal). […]

SMILES: CC(=N)NCc1cccc(CN)c1.Cl.Cl [1400W, N-(3-(aminomethyl)benzyl)acetamidine. dihydrochloride]
- decrease of rate of positive TUNEL (co-cultures under elevated hydrostatic pressure): approximately 35%
- decrease of rate of positive TUNEL (co-cultures under simulated ischemia): approximately 50%
- attenuation of retinal ganglion cell apoptosis (summary statement, simulated ischemia and elevated hydrostatic pressure, stressor not specified): ~50%
